In patent US20250312469A1 (CANGET BIOTEKPHARMA, priority 2024, published 2025):

What was measured:
[1] = Plasma protein binding (RED); conditions: both, human, % Bound of Plasma, Test Article (FL118), 37° C.
[2] = tested on: human hepatocytes; experiment: Cell viability (MTS) after CYP induction treatment
Protocol: (§1) Vehicle controls were treated in parallel with hepatocyte culture medium. […] (2) After the CYP induction treatment, the cells were used for a cell viability assay. […] The absorbance of formazan, which is proportional to the number of viable cells, was measured spectrophotometrically using the CellTiter 96 AQueous ONE Solution Cell Proliferation Assay. […] (3) Total RNA was isolated from the treated cells using the RNeasy mini kit (Qiagen, Valencia, CA, USA) and treated with RNase-free DNase (Qiagen) following the manufacturer's protocols. The concentration of RNA was determined using a Qubit Fluorometer with a Qubit RNA HS assay kit (Invitrogen). cDNA was synthesized from up to 1 μg of the total RNA harvested from the cells using a QuantiTect RT kit (Qiagen). Analysis of gene expression by qPCR was performed using the LightCycler 480 System (Roche Diagnostics Corporation, Indianapolis, IN, USA).

[3] = tested on: CYP2B6 mRNA; experiment: CYP induction (mRNA) in fresh human hepatocytes
Excerpt: (2) CYP positive inducers (Table 58a) and Williams' Medium E (WME) were purchased from Sigma-Aldrich (St. Louis, MO, USA). Dulbecco's phosphate-buffered saline (DPBS, pH 7.4) was purchased from Invitrogen (Carlsbad, CA, USA). Hepatocyte culture medium (serum-free) for CYP induction was purchased from XenoTech (catalog #K2300, Lenexa, KS, USA). The CellTiter 96 AQueous ONE Solution Cell Proliferation Assay was obtained from Promega (Madison, WI, USA). All other chemicals and reagents were of analytical grade or higher. (3) Fresh human hepatocytes (Table 58b) seeded at ˜0.15 million cells/well in 48-well plates (˜0.75 million cells/mL) were purchased from Thermo Fisher Scientific (Grand Island, NY, USA) and BioreclamationIVT (Baltimore, MD, USA).
as §1

[4] = tested on: other 109 ubiquitin-related proteins/enzymes; experiment: ProtoArray protein microarray probed with 3H-FL118; format: binding, human
Protocol: The flask was then immersed in silicone oil bath at 180° C.-190° C. for 6 hours. The tritium gas was removed. The reaction mixture was dissolved in 1 mL of DMSO and back-exchanged 10× with 50% ethanol. Injected directly to CapCeLL PAK C-18 column (4.6×250 mm), mobile phase 30% CH3CN, 0.1% TFA, flow 1 mL/min, U.V. =200 nm, r.t. =40 min. After purification, total activity was 5 mCi (solid) with a specificity of 5.6 Ci/mmol at a radiochemical purity of >97% for ^3H-FL118. […] The flask was then immersed in silicone oil bath at 190° C. for 24 h. The tritium gas was removed. The reaction mixture was dissolved in 1 mL of DMSO and back-exchanged 10× with 50% ethanol and injected directly to CapCeLL Pak C-18 column (4.6×250 mm), mobile phase 30% CH3CN, 0.1% TFA, […], U.V. =200 nm, r.t. =40 min. After purification total activity was 5 mCi (solid) with a specificity of 16.5 Ci/mmol at a radiochemical purity of ≥81% for ^3H-FL118.
Use of ^3H-FL118 as a radioactive probe to search FL118-binding proteins through screening of human protein microarray (ProtoArray R with 9,400 human proteins, Invitrogen): The study process includes the following steps.
1. Blocking the ProtoArray: (i) Immediately place the mailer containing the Human Protein Microarray v5.0 at 4° C. upon removal from storage at −20° C. and equilibrate the mailer at 4° C. for at least 15 minutes prior to use. […]

SMILES: CCC1(O)C(=O)OCc2c1cc1n(c2=O)Cc2cc3cc4c(cc3nc2-1)OCO4 (centres unmarked) [FL118]
- fraction unbound at 4 h, 1 μM [1]: < 0.01
- % of Vehicle-treated Cells ([2]; donor 1, 0.01 μM): 91%
- Formazan Absorbance Mean ([2]; donor 1, 0.01 μM): 1.48
- % of Vehicle-treated Cells ([2]; donor 1, 0.1 μM): 73%
- Formazan Absorbance Mean ([2]; donor 1, 0.1 μM): 1.20
- % of Vehicle-treated Cells ([2]; donor 1, 1 μM): 31%
- Formazan Absorbance Mean ([2]; donor 1, 1 μM): 0.512
- cytotoxicity ([2]; donor 1, 0.1 and 1 μM): dose-dependent cytotoxicity
- % of Vehicle-treated Cells ([2]; donor 2, 0.001 μM): 103%
- Formazan Absorbance Mean ([2]; donor 2, 0.001 μM): 1.53
- % of Vehicle-treated Cells ([2]; donor 2, 0.005 μM): 101%
- Formazan Absorbance Mean ([2]; donor 2, 0.005 μM): 1.51
- % of Vehicle-treated Cells ([2]; donor 2, 0.01 μM): 99%
- Formazan Absorbance Mean ([2]; donor 2, 0.01 μM): 1.48
- cytotoxicity ([2]; donor 2, 0.001 to 0.01 μM): No cytotoxicity
- % of Vehicle-treated Cells ([2]; donor 3, 0.025 μM): 94%
- Formazan Absorbance Mean ([2]; donor 3, 0.025 μM): 1.63
- % of Vehicle-treated Cells ([2]; donor 3, 0.05 μM): 104%
- Formazan Absorbance Mean ([2]; donor 3, 0.05 μM): 1.80
- cytotoxicity ([2]; donor 3, 0.025 and 0.05 μM): did not show cytotoxicity
- % of PB-treated Cells ([3]; Donor 1, 0.01 μM, negative values treated as zero): 0%
- % of PB-treated Cells ([3]; Donor 1, 0.1 μM, negative values treated as zero): 0%
- % of PB-treated Cells ([3]; Donor 1, 1 μM, negative values treated as zero): 0%
- % of PB-treated Cells ([3]; Donor 3, 0.025 μM, negative values treated as zero): 0%
- % of PB-treated Cells ([3]; Donor 3, 0.05 μM, negative values treated as zero): 0%
- induction of CYP2B6 mRNA ([3]; donor 1, 0.01, 0.1, 1 μM): did not increase CYP2B6 mRNA
- % of PB-treated Cells ([3]; donor 2, 0.001 μM): 0.70%
- % of PB-treated Cells ([3]; donor 2, 0.005 μM): 0.43%
- % of PB-treated Cells ([3]; donor 2, 0.01 μM): 0.11%
- induction of CYP2B6 mRNA ([3]; donor 2, 0.001, 0.005, 0.01 μM): did not increase CYP2B6 mRNA
- induction of CYP2B6 mRNA ([3]; donor 3, 0.025, 0.05 μM): did not increase CYP2B6 and CYP3A4 mRNA
- binding to other ubiquitin-related proteins [4]: did not bind
